Reference: patent US20120101110A1, “Diaza-spiro[5.5]undecanes” (priority 2010, published 2012)

Experiments:
human orexin 2 receptors [1] = biological target: T1, human orexin 2 receptors (Homo sapiens, UniProt O43614); assay: Calcium accumulation in cells (FLIPR), hOx2R; assay type: cell-based; conditions: cells expressing human orexin 2 receptor; inhibition of orexin A-induced calcium accumulation; Cheng and Prusoff correction
T1 sequence (O43614 1-444): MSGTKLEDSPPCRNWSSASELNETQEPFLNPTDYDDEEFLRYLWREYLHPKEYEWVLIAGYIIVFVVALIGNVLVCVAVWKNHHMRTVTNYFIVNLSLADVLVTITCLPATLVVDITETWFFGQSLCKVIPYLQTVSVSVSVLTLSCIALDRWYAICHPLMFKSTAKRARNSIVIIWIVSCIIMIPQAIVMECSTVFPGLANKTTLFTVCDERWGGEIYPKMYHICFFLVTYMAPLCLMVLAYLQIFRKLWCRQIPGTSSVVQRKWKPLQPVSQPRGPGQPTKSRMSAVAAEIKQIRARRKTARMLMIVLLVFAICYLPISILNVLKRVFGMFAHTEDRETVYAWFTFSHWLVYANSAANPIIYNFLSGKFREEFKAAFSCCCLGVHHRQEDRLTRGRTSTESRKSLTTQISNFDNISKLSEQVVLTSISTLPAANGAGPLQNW
Description: Cells expressing human orexin 1 or human orexin 2 receptors, were seeded at 8,000 cells/well in 384 well black-walled clear bottom, poly-D-lysine coated plates. After 24 h, the medium was removed and cells were washed once with phosphate buffered saline and serum-deprived overnight in assay buffer (130 mM NaCl, 5.4 mM KCl, 1.8 mM CaCl2, 0.8 mM MgSO4, 0.9 mM NaH2PO4, 25 mM glucose, 20 mM HEPES, pH 7.4) containing bovine serum albumin (1% w/v).
On the day of the experiment, the cells seeded in black plates were treated with assay buffer containing the Ca^2+sensitive fluorescent dye Fluo-4-AM (2 μM), and probenecid (0.1 mM). After 1 h plates were washed twice with, and resuspended in, assay buffer containing probenecid (0.1 mM) using a multi plate washer. […] Fluorescence measurements were then continued every 1 S for 120 S followed by every 4 S for 240 S.
The measurements were typically made in two sequences:
Compounds of formula I were tested usually in a concentration range from 10^−9 M to 10^−5 M. In the second round, performed one hour later (to allow for equilibration), Orexin A was tested either in the absence (calibration curves, Orexin A agonist controls) or in the presence of compounds of formula I to determine antagonism.

human orexin 1 receptors [2] = biological target: T2, human orexin 1 receptors (Homo sapiens, UniProt O43613); assay: Radioligand binding assay ([3H]-SB649868 competition), hOx1R; conditions: competition with about 1 nM [3H]-SB649868; CHO or HEK cell membranes expressing human orexin 1 receptor
T2 sequence (O43613 1-425): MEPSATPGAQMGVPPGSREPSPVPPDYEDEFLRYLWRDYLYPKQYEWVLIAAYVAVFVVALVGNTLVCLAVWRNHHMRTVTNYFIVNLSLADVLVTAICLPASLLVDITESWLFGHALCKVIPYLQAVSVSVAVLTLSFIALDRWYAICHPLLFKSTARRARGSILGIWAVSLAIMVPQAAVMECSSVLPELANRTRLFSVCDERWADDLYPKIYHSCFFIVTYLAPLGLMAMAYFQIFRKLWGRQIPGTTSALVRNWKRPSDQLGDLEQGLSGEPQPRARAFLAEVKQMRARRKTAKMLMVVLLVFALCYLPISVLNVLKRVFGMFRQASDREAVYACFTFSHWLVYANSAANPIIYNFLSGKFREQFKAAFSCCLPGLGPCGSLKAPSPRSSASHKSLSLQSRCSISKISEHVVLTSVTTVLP
Outline: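 Membranes from hOx1R-expressing cells incubated 1 h at room temperature with about 1 nM [3H]-SB649868 and test compound, in triplicate. Buffer was 10 mM HEPES pH 7.5, 0.5% BSA, 5 mM MgCl2, 1 mM CaCl2, 0.05% tween; 10 μM almorexant defined non-specific binding. Filtration then counting of bound radioactivity; values reported as Kd.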

human orexin 2 receptors [3] = biological target: T1, human orexin 2 receptors; assay: Radioligand binding assay ([3H]-SB649868 competition), hOx2R; conditions: competition with about 1 nM [3H]-SB649868; CHO or HEK cell membranes expressing human orexin 2 receptor; read-out: binding hOx2R Kd
Outline: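 Membranes were incubated 1 h at room temperature in 10 mM HEPES pH 7.5 with 0.5% BSA, 5 mM MgCl2, 1 mM CaCl2 and 0.05% Tween, with about 1 nM [3H]-SB649868 and test compounds in triplicate. Non-specific binding was defined with 10 μM almorexant, and bound radioactivity was counted.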

human orexin 1 receptors [4] = biological target: T2, human orexin 1 receptors; assay: Calcium accumulation in cells (FLIPR), hOx1R

## COc1cncc(-c2nn(C)nc2CN2CCCC3(CCN(c4nc(C)cc(C)n4)CC3)C2=O)c1 [Example 121, 9-(4,6-dimethylpyrimidin-2-yl)-2-((5-(5-methoxypyridin-3-yl)-2-methyl-2H-1,2,3-triazol-4-yl)methyl)-2,9 diazaspiro[5.5]undecan-1-one]
Human orexin 2 receptors [1]
  Ki: 0.002 µM
Human orexin 1 receptors [2]
  Kd: 0.196 µM
Human orexin 2 receptors [3]
  Kd: 0.015 µM
Human orexin 1 receptors [4]
  Ki: 0.315 µM

## COCc1cccc(-c2ocnc2CN2CCCC3(CCN(c4nc(C)cc(C)n4)CC3)C2=O)c1 [Example 123, 9-(4,6-dimethylpyrimidin-2-yl)-2-((5-(3-(methoxymethyl)phenyl)oxazol-4-yl)methyl)-2,9-diazaspiro[5.5]undecan-1-one]
Human orexin 2 receptors [1]
  Ki: 0.018 µM
Human orexin 1 receptors [2]
  Kd: 3.24 µM
Human orexin 2 receptors [3]
  Kd: 0.071 µM
Human orexin 1 receptors [4]
  Ki: 1.78 µM

## COCc1cccc(-c2oc(C)nc2CN2CCCC3(CCN(c4nc(C)cc(C)n4)CC3)C2=O)c1 [Example 124, 9-(4,6-dimethylpyrimidin-2-yl)-2-((5-(3-(methoxymethyl)phenyl)-2-methyloxazol-4-yl)methyl)-2,9 diazaspiro[5.5]undecan-1-one]
Human orexin 2 receptors [1]
  Ki: 0.0012 µM
Human orexin 1 receptors [2]
  Kd: 0.368 µM
Human orexin 2 receptors [3]
  Kd: 0.019 µM
Human orexin 1 receptors [4]
  Ki: 0.101 µM
